The record followed here is patent publication EP4817688A2, “DEGRADING PKCß1 TO TREAT CANCER” (Mayo Foundation for Medical Education and Research, priority 2020, dated 2022).

Common to all, as to assay type: cell-based
In one assay the test system is MDAH-2774 cells. Briefly: crystal violet (CV) proliferation assay, MDAH-2774. The settings on record: Homo sapiens; MDAH-2774 (PKCβ1^high) 1000 cells/well; read-out: Approximate IC50. The method, then:
(§1) Cell proliferation rates were determined using crystal violet assays. One thousand cells per well were plated in 96 well tissue culture plates and treated the following day with a bifunctional compound or control for 7 days in replicates of 8. Cells were fixed with 25% glutaraldehyde for 10 minutes with shaking, washed 5 times with distilled water, stained with a 1% crystal violet solution (solubilized in 25% methanol) for 10 minutes, washed again 5 times and allowed to dry. De-staining was performed using […] sodium citrate in 50% ethanol followed by quantification using a 96 well spectrophotometer set at an absorbance of 550 nm.
(§2) Based on the potent anti-proliferative activity of ENDX-PROTACs TC-Pr-006, TC-Pr-007, TC-Pr -008, and TC-Pr -009 in TNBC cells, the efficacy of these compounds for inhibiting the growth of ovarian cancer cells was tested. This analysis utilized KURAMOCHI cells, which represent the high-grade serous subtype (the most malignant form that accounts for 70% of all ovarian cancers and associates with poor clinical outcome) and MDAH-2774 cells, which represent endometrioid ovarian cancer and accounts for 20% of all ovarian cancer. PKCβ1 was confirmed to be expressed in both ovarian cancer cell line models, with MDAH-2774 cells expressing higher amounts of PKCβ1 compared to KURAMOCHI cells (FIG. 5A). […]

A further assay concerns MDAMB436 cells. Nature of the assay: crystal violet (CV) proliferation assay, MDAMB436. The settings on record: Homo sapiens, MDA-MB-436, MDAMB436 (PKCβ1^low, Rb^negative) 2000 cells. The method, then: as §1
The test system of a further assay is KURAMOCHI cells. Nature of the assay: crystal violet (CV) proliferation assay, KURAMOCHI
The settings on record: KURAMOSHI (PKCβ1^low) 1000 cells/well; read-out: Approximate IC50. Here is the method:
as §1, §2

A word on the IC50: it is the point on the concentration scale where inhibition reaches its midpoint. Regarding `CCC(=C(c1ccc(O)cc1)c1ccc(OCCN(C)C(=O)COCCOCCNC(=O)Cc2ccc3c(c2)CN(C2CCC(=O)NC2=O)C3=O)cc1)c1ccccc1` (stereo not drawn) [TC-Pr-009, 2-[2-(2-2-[2-(2,6-dioxopiperidin-3-yl)-1-oxo-2,3-dihydro-1H-isoindol-5-yl]acetamidoethoxy)ethoxy]-N-(2-4-[1-(4-hydroxyphenyl)-2-phenylbut-1-en-1-yl]phenoxyethyl)-N-methylacetamide], the 50% inhibitory concentration (IC50) in the assay on MDAH-2774 cells is 1000 to 10000 nM; in the assay on MDAMB436 cells it was 64 nM; in the assay with KURAMOCHI cells, 1000 to 10000 nM.
